According to PMC7442682 (Chemical biology & drug design, 2020):

Legend:
D1 receptor = D1 receptor (Homo sapiens, UniProt P21728); test: PDSP radioligand binding, dopamine D1 receptor
D2 receptor = D2 receptor (Homo sapiens, UniProt P14416); test: PDSP radioligand binding, dopamine D2 receptor
D3 receptor = D3 receptor (Homo sapiens, UniProt P35462); test: PDSP radioligand binding, dopamine D3 receptor
D4 receptor = biological target: T1, D4 receptor (Homo sapiens, UniProt P21917); test: PDSP radioligand binding, dopamine D4 receptor; details: read-out: Ki D4
T1 sequence (P21917 1-419): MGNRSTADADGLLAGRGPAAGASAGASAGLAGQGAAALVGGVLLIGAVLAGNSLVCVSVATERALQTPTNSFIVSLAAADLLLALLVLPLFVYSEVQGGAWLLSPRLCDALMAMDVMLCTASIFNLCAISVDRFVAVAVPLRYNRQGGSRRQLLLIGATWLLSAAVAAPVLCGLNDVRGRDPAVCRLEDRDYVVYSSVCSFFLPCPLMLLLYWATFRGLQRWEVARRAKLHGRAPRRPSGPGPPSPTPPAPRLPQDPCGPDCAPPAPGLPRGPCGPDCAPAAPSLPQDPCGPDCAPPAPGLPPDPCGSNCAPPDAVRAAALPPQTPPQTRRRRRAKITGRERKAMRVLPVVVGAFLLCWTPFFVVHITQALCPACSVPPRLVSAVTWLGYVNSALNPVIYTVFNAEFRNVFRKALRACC

D5 receptor = D5 receptor (Homo sapiens, UniProt P21918); test: PDSP radioligand binding, dopamine D5 receptor; details: read-out: Ki D5
Chain of D5 receptor (P21918 whole entry): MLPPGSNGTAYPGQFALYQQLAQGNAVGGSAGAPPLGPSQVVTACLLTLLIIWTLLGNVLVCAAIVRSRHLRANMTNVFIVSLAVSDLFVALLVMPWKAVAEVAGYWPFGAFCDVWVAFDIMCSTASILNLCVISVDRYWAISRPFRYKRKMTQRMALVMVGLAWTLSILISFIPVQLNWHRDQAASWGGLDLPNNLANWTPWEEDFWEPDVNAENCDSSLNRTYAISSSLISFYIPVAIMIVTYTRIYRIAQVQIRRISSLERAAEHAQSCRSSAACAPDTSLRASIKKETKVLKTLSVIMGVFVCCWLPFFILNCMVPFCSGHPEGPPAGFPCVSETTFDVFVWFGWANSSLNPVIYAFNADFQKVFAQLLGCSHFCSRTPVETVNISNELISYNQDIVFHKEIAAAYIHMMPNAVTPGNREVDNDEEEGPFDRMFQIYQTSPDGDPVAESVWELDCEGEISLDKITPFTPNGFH

5-HT1A receptor = biological target: T2, 5-HT1A receptor (Homo sapiens, UniProt P08908); test: PDSP radioligand binding, 5-HT1A receptor
T2 sequence (P08908 1-422): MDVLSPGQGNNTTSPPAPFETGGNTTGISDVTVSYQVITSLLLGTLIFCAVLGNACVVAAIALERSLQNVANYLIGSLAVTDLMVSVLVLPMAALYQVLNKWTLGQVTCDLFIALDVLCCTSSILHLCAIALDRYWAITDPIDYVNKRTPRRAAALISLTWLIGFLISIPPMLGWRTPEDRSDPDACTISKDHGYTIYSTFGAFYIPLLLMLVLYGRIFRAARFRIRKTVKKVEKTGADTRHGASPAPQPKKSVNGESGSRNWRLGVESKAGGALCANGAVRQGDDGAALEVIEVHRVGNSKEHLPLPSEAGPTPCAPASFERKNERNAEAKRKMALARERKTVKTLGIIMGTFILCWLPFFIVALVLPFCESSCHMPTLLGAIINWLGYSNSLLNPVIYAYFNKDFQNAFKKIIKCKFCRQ

5-HT1B receptor = 5-HT1B receptor (Homo sapiens, UniProt P28222); test: PDSP radioligand binding, 5-HT1B receptor
Chain of 5-HT1B receptor (P28222 whole entry): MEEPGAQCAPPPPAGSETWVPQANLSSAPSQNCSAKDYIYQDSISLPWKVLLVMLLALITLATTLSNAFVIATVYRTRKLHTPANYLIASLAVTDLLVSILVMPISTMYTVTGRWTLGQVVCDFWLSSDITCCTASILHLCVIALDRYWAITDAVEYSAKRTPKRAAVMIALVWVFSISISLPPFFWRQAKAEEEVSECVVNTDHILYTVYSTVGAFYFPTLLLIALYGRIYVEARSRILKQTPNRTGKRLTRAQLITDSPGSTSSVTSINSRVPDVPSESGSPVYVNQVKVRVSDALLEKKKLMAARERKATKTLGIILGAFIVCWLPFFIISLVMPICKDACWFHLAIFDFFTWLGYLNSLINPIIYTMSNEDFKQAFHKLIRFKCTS

5-HT2A receptor = 5-HT2A receptor (Homo sapiens, UniProt P28223); test: PDSP radioligand binding, 5-HT2A receptor
Chain of 5-HT2A receptor (P28223 whole entry): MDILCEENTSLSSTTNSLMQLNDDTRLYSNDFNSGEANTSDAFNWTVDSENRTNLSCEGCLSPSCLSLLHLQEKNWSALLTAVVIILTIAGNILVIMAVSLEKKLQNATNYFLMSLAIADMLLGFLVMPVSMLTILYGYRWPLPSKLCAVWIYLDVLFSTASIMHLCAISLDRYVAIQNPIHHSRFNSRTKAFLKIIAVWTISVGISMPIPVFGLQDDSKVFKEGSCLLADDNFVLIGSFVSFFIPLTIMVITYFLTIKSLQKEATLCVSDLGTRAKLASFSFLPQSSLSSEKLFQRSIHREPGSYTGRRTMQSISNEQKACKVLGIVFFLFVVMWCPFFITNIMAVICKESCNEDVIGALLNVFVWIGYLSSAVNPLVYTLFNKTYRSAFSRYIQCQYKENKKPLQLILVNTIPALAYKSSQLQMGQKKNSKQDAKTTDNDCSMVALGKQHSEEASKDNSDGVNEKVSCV

5-HT5A receptor = 5-HT5A receptor (Homo sapiens, UniProt P47898); test: PDSP radioligand binding, 5-HT5A receptor
Chain of 5-HT5A receptor (P47898 whole entry): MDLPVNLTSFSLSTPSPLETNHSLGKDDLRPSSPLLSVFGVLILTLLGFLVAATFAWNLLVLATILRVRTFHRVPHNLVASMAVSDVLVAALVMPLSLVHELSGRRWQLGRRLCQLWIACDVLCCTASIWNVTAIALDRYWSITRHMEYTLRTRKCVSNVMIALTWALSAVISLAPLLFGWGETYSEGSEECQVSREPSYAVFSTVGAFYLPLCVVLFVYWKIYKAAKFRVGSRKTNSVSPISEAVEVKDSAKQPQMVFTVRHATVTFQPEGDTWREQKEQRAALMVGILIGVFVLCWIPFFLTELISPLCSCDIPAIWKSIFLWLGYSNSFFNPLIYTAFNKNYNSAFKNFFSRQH

5-HT6 receptor = 5-HT6 receptor (Homo sapiens, UniProt P50406); test: PDSP radioligand binding, 5-HT6 receptor; details: for 5-HT6 selectivity versus the other receptors tested: versus all other dopamine, serotonin and adrenergic receptors tested
Chain of 5-HT6 receptor (P50406 whole entry): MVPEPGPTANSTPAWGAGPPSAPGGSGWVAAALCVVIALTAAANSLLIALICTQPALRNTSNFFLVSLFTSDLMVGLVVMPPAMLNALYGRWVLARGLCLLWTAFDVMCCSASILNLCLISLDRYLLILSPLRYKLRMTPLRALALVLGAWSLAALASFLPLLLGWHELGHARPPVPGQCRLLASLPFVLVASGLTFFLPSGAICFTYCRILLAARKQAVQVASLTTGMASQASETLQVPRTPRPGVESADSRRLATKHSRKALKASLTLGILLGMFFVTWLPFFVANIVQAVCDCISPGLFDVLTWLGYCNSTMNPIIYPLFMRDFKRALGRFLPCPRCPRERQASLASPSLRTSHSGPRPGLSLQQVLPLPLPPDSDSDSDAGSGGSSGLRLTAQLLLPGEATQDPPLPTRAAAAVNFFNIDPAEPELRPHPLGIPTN

α1A adrenergic receptor = biological target: T3, α1A adrenergic receptor (Homo sapiens, UniProt P35348); test: PDSP radioligand binding, α1A adrenergic receptor
T3 sequence (P35348 1-466): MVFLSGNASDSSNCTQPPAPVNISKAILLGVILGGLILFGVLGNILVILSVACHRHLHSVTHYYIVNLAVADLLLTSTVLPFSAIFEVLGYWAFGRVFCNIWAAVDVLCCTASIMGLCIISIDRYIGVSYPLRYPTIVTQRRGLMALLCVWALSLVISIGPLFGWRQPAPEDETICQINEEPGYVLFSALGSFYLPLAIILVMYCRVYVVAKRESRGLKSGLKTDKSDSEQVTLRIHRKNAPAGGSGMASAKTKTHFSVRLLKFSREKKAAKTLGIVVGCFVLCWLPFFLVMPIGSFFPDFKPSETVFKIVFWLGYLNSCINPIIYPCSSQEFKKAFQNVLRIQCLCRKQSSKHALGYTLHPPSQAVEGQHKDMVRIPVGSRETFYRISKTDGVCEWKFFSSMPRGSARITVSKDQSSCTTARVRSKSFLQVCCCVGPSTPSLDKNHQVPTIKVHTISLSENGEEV

α1B adrenergic receptor = biological target: T4, α1B adrenergic receptor (Homo sapiens, UniProt P35368); test: PDSP radioligand binding, α1B adrenergic receptor; details: for inhibition at 10 µM: read-out: Ki α1B
T4 sequence (P35368 1-520): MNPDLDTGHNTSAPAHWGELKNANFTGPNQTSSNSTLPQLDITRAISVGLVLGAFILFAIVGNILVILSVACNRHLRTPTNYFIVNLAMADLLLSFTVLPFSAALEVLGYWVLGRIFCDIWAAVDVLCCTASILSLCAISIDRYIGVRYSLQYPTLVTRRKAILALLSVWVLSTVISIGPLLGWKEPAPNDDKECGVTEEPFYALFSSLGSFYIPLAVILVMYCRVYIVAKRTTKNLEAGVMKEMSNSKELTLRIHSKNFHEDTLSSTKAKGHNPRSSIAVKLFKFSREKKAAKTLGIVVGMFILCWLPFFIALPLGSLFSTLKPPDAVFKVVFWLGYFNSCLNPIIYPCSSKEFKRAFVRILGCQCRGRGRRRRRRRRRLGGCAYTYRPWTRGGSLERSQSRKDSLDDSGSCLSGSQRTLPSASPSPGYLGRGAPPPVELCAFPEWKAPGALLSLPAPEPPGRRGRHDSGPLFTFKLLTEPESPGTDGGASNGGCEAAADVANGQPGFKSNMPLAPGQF

α2A adrenergic receptor = biological target: T5, α2A adrenergic receptor (Homo sapiens, UniProt P08913); test: PDSP radioligand binding, α2A adrenergic receptor
T5 sequence (P08913 1-465): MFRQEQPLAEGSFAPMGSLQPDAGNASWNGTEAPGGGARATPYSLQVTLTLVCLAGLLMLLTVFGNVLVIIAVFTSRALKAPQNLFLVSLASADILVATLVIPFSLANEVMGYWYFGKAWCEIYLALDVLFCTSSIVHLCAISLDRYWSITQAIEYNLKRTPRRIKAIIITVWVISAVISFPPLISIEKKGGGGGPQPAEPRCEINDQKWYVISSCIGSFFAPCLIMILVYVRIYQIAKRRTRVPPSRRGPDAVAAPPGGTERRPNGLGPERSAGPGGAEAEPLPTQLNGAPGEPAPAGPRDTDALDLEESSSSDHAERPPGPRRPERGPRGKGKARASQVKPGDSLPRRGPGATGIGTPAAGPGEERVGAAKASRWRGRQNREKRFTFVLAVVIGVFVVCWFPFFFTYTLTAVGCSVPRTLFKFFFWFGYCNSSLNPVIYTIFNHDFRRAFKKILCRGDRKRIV

α2B adrenergic receptor = biological target: T6, α2B adrenergic receptor (Homo sapiens, UniProt P18089); test: PDSP radioligand binding, α2B adrenergic receptor
T6 sequence (P18089 1-450): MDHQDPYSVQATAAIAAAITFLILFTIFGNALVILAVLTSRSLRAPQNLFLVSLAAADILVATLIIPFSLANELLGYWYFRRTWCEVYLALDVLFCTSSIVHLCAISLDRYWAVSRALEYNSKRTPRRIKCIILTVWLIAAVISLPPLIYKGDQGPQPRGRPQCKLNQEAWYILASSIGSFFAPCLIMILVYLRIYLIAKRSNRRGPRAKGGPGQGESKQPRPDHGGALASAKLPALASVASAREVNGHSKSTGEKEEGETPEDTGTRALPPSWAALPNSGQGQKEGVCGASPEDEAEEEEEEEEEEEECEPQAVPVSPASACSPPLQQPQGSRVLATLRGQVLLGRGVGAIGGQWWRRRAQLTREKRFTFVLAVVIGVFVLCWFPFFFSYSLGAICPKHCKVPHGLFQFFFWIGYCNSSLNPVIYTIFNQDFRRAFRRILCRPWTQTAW

α2C adrenergic receptor = biological target: T7, α2C adrenergic receptor (Homo sapiens, UniProt P18825); test: PDSP radioligand binding, α2C adrenergic receptor
T7 sequence (P18825 1-462): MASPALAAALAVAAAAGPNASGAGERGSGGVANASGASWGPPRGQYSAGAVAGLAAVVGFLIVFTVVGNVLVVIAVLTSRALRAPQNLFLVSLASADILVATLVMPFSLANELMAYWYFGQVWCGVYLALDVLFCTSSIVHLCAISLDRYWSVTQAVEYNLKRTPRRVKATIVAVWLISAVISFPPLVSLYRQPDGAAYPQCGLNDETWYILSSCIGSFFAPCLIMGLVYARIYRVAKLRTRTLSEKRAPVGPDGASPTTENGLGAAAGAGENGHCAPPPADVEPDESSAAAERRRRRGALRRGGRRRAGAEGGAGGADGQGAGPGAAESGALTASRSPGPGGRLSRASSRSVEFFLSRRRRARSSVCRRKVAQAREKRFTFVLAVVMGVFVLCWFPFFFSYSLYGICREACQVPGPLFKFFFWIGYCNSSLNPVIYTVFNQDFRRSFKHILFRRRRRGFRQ

Chain of D2 receptor (P14416 whole entry): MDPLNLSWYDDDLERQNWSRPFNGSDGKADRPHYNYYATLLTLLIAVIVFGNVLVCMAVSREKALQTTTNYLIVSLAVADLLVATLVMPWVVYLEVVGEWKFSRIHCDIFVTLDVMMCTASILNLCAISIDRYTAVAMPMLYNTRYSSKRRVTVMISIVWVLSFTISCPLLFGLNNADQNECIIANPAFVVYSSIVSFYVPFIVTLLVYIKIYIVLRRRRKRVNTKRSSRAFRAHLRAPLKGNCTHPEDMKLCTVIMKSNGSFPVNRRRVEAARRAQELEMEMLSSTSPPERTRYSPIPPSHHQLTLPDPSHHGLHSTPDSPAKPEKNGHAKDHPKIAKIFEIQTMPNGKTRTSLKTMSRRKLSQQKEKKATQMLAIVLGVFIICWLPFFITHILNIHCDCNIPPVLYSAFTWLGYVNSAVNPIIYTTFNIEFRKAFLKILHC
Chain of D3 receptor (P35462 whole entry): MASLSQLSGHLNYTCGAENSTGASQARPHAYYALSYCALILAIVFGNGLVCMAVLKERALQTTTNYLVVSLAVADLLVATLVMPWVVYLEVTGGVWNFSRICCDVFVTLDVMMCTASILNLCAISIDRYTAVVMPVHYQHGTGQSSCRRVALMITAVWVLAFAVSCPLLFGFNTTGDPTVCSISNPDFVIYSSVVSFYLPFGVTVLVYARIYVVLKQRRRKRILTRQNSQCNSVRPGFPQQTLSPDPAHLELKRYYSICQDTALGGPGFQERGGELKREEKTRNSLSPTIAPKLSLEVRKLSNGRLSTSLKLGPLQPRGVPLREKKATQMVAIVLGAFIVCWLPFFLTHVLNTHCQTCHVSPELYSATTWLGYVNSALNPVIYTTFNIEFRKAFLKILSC
Chain of D1 receptor (P21728 whole entry): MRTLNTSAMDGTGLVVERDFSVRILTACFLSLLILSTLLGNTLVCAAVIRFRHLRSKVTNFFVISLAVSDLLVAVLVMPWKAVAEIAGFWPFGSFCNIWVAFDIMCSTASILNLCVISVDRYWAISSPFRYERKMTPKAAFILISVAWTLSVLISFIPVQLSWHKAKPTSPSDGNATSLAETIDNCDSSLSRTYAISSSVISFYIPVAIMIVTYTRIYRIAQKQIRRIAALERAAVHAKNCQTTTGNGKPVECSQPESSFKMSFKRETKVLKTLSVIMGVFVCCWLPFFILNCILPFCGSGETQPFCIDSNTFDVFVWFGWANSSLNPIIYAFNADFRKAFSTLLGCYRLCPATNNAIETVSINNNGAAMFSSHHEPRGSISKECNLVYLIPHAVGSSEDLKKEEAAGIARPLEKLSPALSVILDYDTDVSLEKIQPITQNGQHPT

SMILES | Ki (D1 receptor) [nM] | inhibition at 10 µM (D4 receptor) [%] | inhibition at 10 µM (D5 receptor) [%] | Ki (5-HT1A receptor) [nM] | Ki (5-HT1B receptor) [nM] | Ki (5-HT2A receptor) [nM] | Ki (5-HT5A receptor) [nM] | Ki (5-HT6 receptor) [nM] | Ki (α1A adrenergic receptor) [nM] | inhibition at 10 µM (α1B adrenergic receptor) [%] | Ki (α2B adrenergic receptor) [nM] | Ki (α2C adrenergic receptor) [nM] | Ki (D2 receptor) [nM] | Ki (D3 receptor) [nM] | 5-HT6 selectivity versus the other receptors tested (5-HT6 receptor) | Ki (α1B adrenergic receptor) [nM] | Ki (α2A adrenergic receptor) [nM] | other results
CN1CCc2cc(O)c(O)c3c2C(C1)c1ccccc1-3 (stereo not shown) [Compound 13, 2-methyl-2,3,4,11b-tetrahydro-1H-fluoreno[9,1-cd]azepine-6,7-diol] | 865 | < 10 | < 10 | 393 | 1030 | 352 | 363 | 123 | > 10000 | < 10 | 5820 | 1960 | – | – | – | – | – | inhibition at 10 µM (D2 receptor; read-out: Ki D2): < 10%; inhibition at 10 µM (D3 receptor; read-out: Ki D3): < 10%; inhibition at 10 µM (α2A adrenergic receptor; read-out: Ki α2A): < 10%
COc1cc2c3c(c1OC)-c1ccccc1C3CNCC2 (stereo not shown) [Compound 10, 6,7-dimethoxy-2,3,4,11b-tetrahydro-1H-fluoreno[9,1-cd]azepine] | – | < 10 | < 10 | 110 | 255 | 1680 | 578 | 5 | 545 | – | 1120 | 774 | 780 | 415 | at least 15 fold | 2590 | 1600 | inhibition at 10 µM (D1 receptor; read-out: Ki D1): < 10%
Oc1cc2c3c(c1O)-c1ccccc1C3CNCC2 (stereo not shown) [Compound 11, 2,3,4,11b-tetrahydro-1H-fluoreno[9,1-cd]azepine-6,7-diol] | 8820 | < 10 | < 10 | 151 | 451 | 1560 | 244 | 38 | 3200 | < 10 | 2200 | 1110 | – | 2920 | – | – | 2590 | –
COc1cc2c3c(c1OC)-c1ccccc1C3CN(C)CC2 (stereo not shown) [Compound 12, 6,7-dimethoxy-2-methyl-2,3,4,11b-tetrahydro-1H-fluoreno[9,1-cd]azepine] | 2460 | < 10 | < 10 | – | – | 811 | 286 | 5 | 2860 | – | – | 472 | 636 | 79 | at least 15 fold | 5870 | 1170 | inhibition at 10 µM (5-HT1A receptor; read-out: Ki 5-HT1A): < 10%; inhibition at 10 µM (5-HT1B receptor; read-out: Ki 5-HT1B): < 10%; inhibition at 10 µM (α2B adrenergic receptor; read-out: Ki α2B): < 10%
